Patent US8952024B2, “Herbicidal pyrimidone derivatives” (E I du Pont de Nemours and Company, priority 2009, dated 2015)

Tests used:
Type in all cases: in vivo
[1] = tested on: ducksalad (Heteranthera limosa); test: Test B flooded paddy test
Summary of the method: (§1)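 Seedlings reaching 2 leaves are flooded 3 cm deep; test material is delivered to that water, which stays at the same depth. Plants remain in a greenhouse 13–15 days and are then scored by eye versus controls from 0 to 100.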

[2] = tested on: barnyardgrass (Echinochloa crus-galli); test: Test B flooded paddy test
Summary of the method: as §1

[3] = tested on: umbrella sedge (Cyperus difformis); test: Test B flooded paddy test
Summary of the method: as §1

[4] = tested on: rice (Oryza sativa); test: Test B flooded paddy test
Summary of the method: as §1

[5] = tested on: cocklebur (Xanthium strumarium); test: Test B pre-/postemergence plant response
Summary of the method: (§2)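 Compound in solvent + surfactant applied pre-em (loam/sand) or post-em (plants 2–18 cm, peat medium); greenhouse hold 13–15 days; visual 0–100 control score.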

[6] = tested on: soybean (Glycine max); test: Test B pre-/postemergence plant response
Summary of the method: as §2

[7] = tested on: johnsongrass (Sorghum halepense); test: Test B pre-/postemergence plant response
Summary of the method: as §2

[8] = tested on: kochia (Kochia scoparia); test: Test B pre-/postemergence plant response; settings: Postemergence
Summary of the method: as §2

[9] = tested on: lambsquarters (Chenopodium album); test: Test B pre-/postemergence plant response
Summary of the method: as §2

[10] = tested on: pigweed (Amaranthus retroflexus); test: Test B pre-/postemergence plant response
Summary of the method: as §2

[11] = tested on: bermudagrass (Cynodon dactylon); test: Test B pre-/postemergence plant response
Summary of the method: as §2

[12] = tested on: ragweed (common ragweed, Ambrosia elatior); test: Test B pre-/postemergence plant response
Summary of the method: as §2

[13] = tested on: wild oat (Avena fatua); test: Test B pre-/postemergence plant response
Summary of the method: as §2

[14] = tested on: giant foxtail (Setaria faberii); test: Test B pre-/postemergence plant response
Summary of the method: as §2

[15] = tested on: green foxtail (Setaria viridis); test: Test B pre-/postemergence plant response
Summary of the method: as §2

[16] = tested on: corn (Zea mays); test: Test B pre-/postemergence plant response
Summary of the method: as §2

[17] = 250 g ai/ha, flooded paddy test, visual rating on 0 to 100 scale (0 no effect, 100 complete control) after 13 to 15 days
[18] = Flood (flooded paddy test), 62 g ai/ha, scale of 0 to 100 where 0 is no effect and 100 is complete control, 13 to 15 days
[19] = Postemergence, 31 g ai/ha, 0 to 100 scale (0 no effect, 100 complete control)
[20] = Postemergence, 125 g ai/ha, scale 0 to 100 (0 no effect, 100 complete control)
[21] = Postemergence, 250 g ai/ha, scale 0 to 100 (0 no effect, 100 complete control), 13 to 15 days
[22] = Postemergence, 62 g ai/ha, scale 0 to 100 (0 no effect, 100 complete control)
[23] = Preemergence, 125 g ai/ha, scale 0 to 100, 0 no effect, 100 complete control
[24] = Preemergence, 250 g ai/ha, 0 to 100 scale
[25] = Preemergence, 31 g ai/ha, scale 0 to 100 (0 no effect, 100 complete control)
[26] = Preemergence, 62 g ai/ha, scale 0 to 100, 0 no effect, 100 complete control

## CCCc1ncc(C(=O)C2=C(O)CCCC2=O)c(=O)n1-c1ccccc1 [Compound 217]
[1]; [17]
  Plant response rating, Flood, Ducksalad: 40
[1]; [18]
  Plant response rating, Ducksalad: 0
[2]; [17]
  Plant response rating, Flood, Barnyardgrass: 0
[2]; [18]
  Plant response rating, Barnyardgrass: 0
[3]; [17]
  Plant response rating, Flood, Sedge, Umbrella: 40
[3]; [18]
  Plant response rating, Sedge, Umbrella: 40
[4]; [17]
  Plant response rating, Flood, Rice: 20
[4]; [18]
  Plant response rating, Rice: 0
[5]; [19]
  Plant response rating, Cocklebur: 80
[5]; [20]
  Plant response rating, Cocklebur: 98
[5]; [21]
  Plant response rating, Cocklebur: 100
[5]; [22]
  Plant response rating, Cocklebur: 98
[5]; [23]
  Plant response rating, Cocklebur: 85
[5]; [24]
  Cocklebur plant response rating: 85
[6]; [19]
  Plant response rating, Soybean: 75
[6]; [21]
  Plant response rating, Soybean: 98
[6]; [22]
  Plant response rating, Soybean: 85
[6]; [25]
  Plant response rating, Soybean: 0
[6]; [26]
  Plant response rating, Soybean: 0
[6]; [23]
  Plant response rating, Soybean: 0
[6]; [24]
  Soybean plant response rating: 0
[7]; [19]
  Plant response rating, Johnsongrass: 0
[7]; [20]
  Plant response rating, Johnsongrass: 60
[7]; [21]
  Plant response rating, Johnsongrass: 65
[7]; [22]
  Plant response rating, Johnsongrass: 60
[7]; [25]
  Plant response rating, Johnsongrass: 0
[7]; [26]
  Plant response rating, Johnsongrass: 5
[7]; [23]
  Plant response rating, Johnsongrass: 20
[7]; [24]
  Johnsongrass plant response rating: 55
[8]; 31 g ai/ha, 0 to 100 scale (0 no effect, 100 complete control)
  Plant response rating, Kochia: 75
[8]; 125 g ai/ha, scale 0 to 100 (0 no effect, 100 complete control)
  Plant response rating, Kochia: 100
[8]; 250 g ai/ha, scale 0 to 100 (0 no effect, 100 complete control), 13 to 15 days
  Plant response rating, Kochia: 100
[8]; 62 g ai/ha, scale 0 to 100 (0 no effect, 100 complete control)
  Plant response rating, Kochia: 98
[9]; [19]
  Plant response rating, Lambsquarters: 90
[9]; [20]
  Plant response rating, Lambsquarters: 100
[9]; [21]
  Plant response rating, Lambsquarters: 100
[9]; [22]
  Plant response rating, Lambsquarters: 100
[9]; [25]
  Plant response rating, Lambsquarters: 95
[9]; [26]
  Plant response rating, Lambsquarters: 100
[9]; [23]
  Plant response rating, Lambsquarters: 100
[9]; [24]
  Lambsquarters plant response rating: 100
[10]; [19]
  Plant response rating, Pigweed: 85
[10]; [21]
  Plant response rating, Pigweed: 100
[10]; [22]
  Plant response rating, Pigweed: 100
[10]; [25]
  Plant response rating, Pigweed: 95
[10]; [26]
  Plant response rating, Pigweed: 100
[10]; [23]
  Plant response rating, Pigweed: 100
[10]; [24]
  Pigweed plant response rating: 100
[11]; [19]
  Plant response rating, Bermudagrass: 70
[11]; [20]
  Plant response rating, Bermudagrass: 98
[11]; [21]
  Plant response rating, Bermudagrass: 100
[11]; [22]
  Plant response rating, Bermudagrass: 85
[11]; [25]
  Plant response rating, Bermudagrass: 98
[11]; [26]
  Plant response rating, Bermudagrass: 100
[11]; [23]
  Plant response rating, Bermudagrass: 100
[11]; Preemergence, 250 g ai/ha, 0 to 100 scale, 0 no effect, 100 complete control
  Bermudagrass plant response rating: 100
[12]; [19]
  Plant response rating, Ragweed: 80
[12]; [21]
  Plant response rating, Ragweed: 98
[12]; [22]
  Plant response rating, Ragweed: 80
[12]; [25]
  Plant response rating, Ragweed: 60
[12]; [26]
  Plant response rating, Ragweed: 60
[12]; [23]
  Plant response rating, Ragweed: 90
[12]; [24]
  Ragweed plant response rating: 95
[13]; [19]
  Plant response rating, Oat, Wild: 30
[13]; [21]
  Plant response rating, Oat, Wild: 85
[13]; [22]
  Plant response rating, Oat, Wild: 40
[13]; [25]
  Plant response rating, Oat, Wild: 0
[13]; [26]
  Plant response rating, Oat, Wild: 0
[13]; [23]
  Plant response rating, Oat, Wild: 0
[13]; [24]
  Oat, Wild plant response rating: 0
[14]; [19]
  Plant response rating, Foxtail, Giant: 70
[14]; [20]
  Plant response rating, Foxtail, Giant: 85
[14]; [21]
  Plant response rating, Foxtail, Giant: 90
[14]; [22]
  Plant response rating, Foxtail, Giant: 75
[14]; [25]
  Plant response rating, Foxtail, Giant: 5
[14]; [26]
  Plant response rating, Foxtail, Giant: 40
[14]; [23]
  Plant response rating, Foxtail, Giant: 75
[14]; [24]
  Foxtail, Giant plant response rating: 85
[15]; [19]
  Plant response rating, Foxtail, Green: 55
[15]; [20]
  Plant response rating, Foxtail, Green: 85
[15]; [21]
  Plant response rating, Foxtail, Green: 90
[15]; [22]
  Plant response rating, Foxtail, Green: 60
[15]; [25]
  Plant response rating, Foxtail, Green: 0
[15]; [26]
  Plant response rating, Foxtail, Green: 0
[15]; [23]
  Plant response rating, Foxtail, Green: 0
[15]; [24]
  Foxtail, Green plant response rating: 90
[16]; [19]
  Plant response rating, Corn: 0
[16]; [20]
  Plant response rating, Corn: 25
[16]; [21]
  Plant response rating, Corn: 35
[16]; [22]
  Plant response rating, Corn: 10
[16]; [25]
  Plant response rating, Corn: 0
[16]; [26]
  Plant response rating, Corn: 0
[16]; [23]
  Plant response rating, Corn: 0
[16]; [24]
  Corn plant response rating: 0
